Where “and” joins values, the source holds several entries; their conditions need not be identical. Equal entries are not always repeated.
Assays:
[1] = system: HL-60 myeloid human leukemic cells; assay: Inhibition/loss of clonogenicity in soft agar, HL-60; type: cell-based; settings: 48 h
Procedure: (§1) Cell lines and drug exposure. Human myeloid (HL-60) and lymphoid (MOLT-3) leukemic cells were obtained from ATCC (ATCC #: CRL-1552; Manassas, Va. USA). MBA-MD-231 and Dld-1 cells were also used. Human cell lines were cultured in RPMI-1640 medium (Invitrogen, Burlington, Ontario) supplemented with 10% heat-inactivated fetal bovine serum (Wisent, St-Bruno, Quebec). The doubling times of HL-60 and MOLT-3 were 16-18 h and 23-24 h, respectively, whereas for both MBA-MD-231 and Dld-1 cells it was 24-27 h. The murine lymphoid leukemic cell line L1210 (ATCC #: CCL-219; Brandes et al., (1966). J Natl Cancer Inst. 37(4): 467-85) was cultured in RPMI-1640 with 5% heat-inactivated fetal calf serum and with 6 μM of 2-mercaptoethanol. The doubling time of the L1210 cells was about 10 h. From this cell line, a clone fully resistant to […], identified herein as L1210/ARAC, was generated after exposure of increasing doses of cytosine arabinoside for a period of 3 months (Schabel et al., (1984). Cancer Treat. Rep 67: 905-922). The doubling time of the L1210/ARAC cells was about 12 h. Human lung adenocarcinoma cells H2087, and Calu-6 non-small cell lung cancer cells, were obtained from ATCC (ATCC #: CRL-5922; Manassas, Va. USA) and cultured in DMEM and RPMI without HEPES, respectively. The cells were trypsinized with 0.25% Trypsin-EDTA (Invitrogen, Grand Island, N.Y.). The doubling time of the H2087 cells was about 35 h. Cell lines were incubated at 37° C. in 5% CO2 atmosphere.
(§2) Genistein (LC Laboratories, Woburn, Mass.) was dissolved in DMSO (Sigma, Oakville, Ontario) to prepare stock solutions of 2 and 20 mM and kept frozen at −20° C. until use. Decitabine (DAC, Dacogen™, 5-aza-2′-deoxycytidine) at 1000 μg/ml in PBS was kept at −80° C. […]
(§3) Inhibition of clonogenicity. […] After 7 d of incubation for murine cell lines or 15 d for human cell lines, the number of colonies (>50 cells) was counted. […] The experiments were repeated three times and expressed as mean±S.E.M.
(§4) Statistical analyses. […] The p value was evaluated accordingly to Tukey's method (Hastings, C et al. (1947). Ann. Math. Statist. 18,413-426). […]

[2] = system: MOLT-3 lymphoid human leukemic cells; assay: Inhibition/loss of clonogenicity in soft agar, MOLT-3; type: cell-based; settings: 48 h
Procedure: as §1, §2, §3, §4

[3] = system: L1210 murine lymphoid leukemic cells; assay: Inhibition/loss of clonogenicity in soft agar, L1210; type: cell-based
Procedure: as §1
(§5) Genistein (LC Laboratories, Woburn, Mass.) was dissolved in DMSO (Sigma, Oakville, Ontario) to prepare stock solutions of 2 and 20 mM and kept frozen at −20° C. until use. Decitabine (DAC, Dacogen™, 5-aza-2′-deoxycytidine) at 1000 μg/ml in PBS was kept at −80° C. Before each experiment, Decitabine was diluted at 1 μg/ml (for murine leukemic cell lines), 10 μg/ml (for human leukemic cells), or 100 μg/ml (for lung carcinoma cells) with sterile PBS and kept on ice until use.
Inhibition of clonogenicity. It is known that cancer cells form clones in soft agar (clonogenicity). Irreversible eradication of the clonogenicity of cancer stem cells is one of the objectives of chemotherapy since it is related to cell proliferation potential. Human and murine leukemic cell lines in log phase at 5×10^4 cells/ml were placed in tissue culture flasks and exposed to the drug combinations for 48 and 24 h respectively. […] After 7 d of incubation for murine cell lines or 15 d for human cell lines, the number of colonies (>50 cells) was counted. […] The experiments were repeated three times and expressed as mean±S.E.M.
as §4

[4] = system: H2087 lung carcinoma cells; assay: Colony formation assay, H2087; type: cell-based, human; settings: decitabine 220 nM and/or genistein 5 μM, 24 h, mean ± S.D., relative to untreated cells
Procedure: as §1, §5
For human lung carcinoma H2087 cells, 100 cells were placed in wells of a 6-well dish (day 0); for Calu-6, MBA-MD-231 and Dld-1, 200 cells were seeded. On day 1, Decitabine (50 ng/ml) and genistein (5 μM) were added concomitantly to the cells for 24 h. Drugs were then removed and wells were rinsed with 1 ml of medium. Fresh medium (2 ml) was added and after 16-19 d colonies were stained with 0.5% methylene blue in 50% methanol and counted. The inhibition/loss of clonogenicity (%) was expressed relative to control (untreated) cells. The experiments were repeated three times and expressed as mean±S.D or mean±SEM for Calu-6, MBA-MD-231 and Dld-1 cells.
as §4

[5] = system: human lung carcinoma cell line (CALU-6); assay: Colony formation assay, CALU-6; type: cell-based
Procedure: as §1, with “atmosphere. […]” for “atmosphere.”
For human lung carcinoma H2087 cells, 100 cells were placed in wells of a 6-well dish (day 0); for Calu-6, MBA-MD-231 and Dld-1, 200 cells were seeded. […] Fresh medium (2 ml) was added and after 16-19 d colonies were stained with 0.5% methylene blue in 50% methanol and counted. […] The experiments were repeated three times and expressed as mean±S.D or mean±SEM for Calu-6, MBA-MD-231 and Dld-1 cells.
as §4

L1210 leukemic cells = assay: Survival of CD2F1 mice bearing L1210 leukemia; type: in vivo; settings: i.v. 10^4 L1210 cells; for Increase in life span (%): 0.5% genistein in diet and/or DAC 2 mg/kg 8 h i.v. infusion on day 1
Procedure: In vivo experiments. Male CD2F1 mice (24-28 g) were purchased from Taconic Biotechnology (Germantown, N.Y., USA). Mice were acclimatized to housing conditions at least 2 weeks before experiments. They received food and water ad libitum. […] Seven days later, the ascetic fluid was obtained from the mice and a cell count of the leukemic cells was performed with a haemocytometer prior to subsequent transplantation. Mice were injected intravenously (i.v.) with 0.1 ml of L1210 or L1210/ARAC (10^4) cells. […] Mice were acclimated to the genistein-enriched regimen over a 10-days period before injection of leukemic cells. A Harvard apparatus compact infusion pump was used at a flow rate of 0.22 ml/h via 25-gauge needle into the lateral tail vein. DAC was given at 2 mg/kg for 8 h. Decitabine was prepared fresh before each experiment, dissolved in ½ PBS and sterilized by 0.2 μm filtration. Mice were placed in a restrainer cage during treatment with access to food. Toxicity was evaluated by body weight loss. Mice fed with genistein-enriched diet kept the same regimen during all the experiment. The survival time of each group of mice was monitored and the increased in life span (ILS) calculated.
Statistical analyses. In order to evaluate whether the inter-group variations were random, one-way ANOVA testing was performed. […] A p value≦0.05 was taken for statistical significance.

[6] = system: L1210/ARAC leukemic cells; assay: Survival of CD2F1 mice bearing L1210/ARAC leukemia; type: in vivo; settings: i.v. 10^4 L1210/ARAC cells, 0.5% genistein in diet and/or DAC 2 mg/kg 8 h i.v. infusion on day 1
Procedure: In vivo experiments. Male CD2F1 mice (24-28 g) were purchased from Taconic Biotechnology (Germantown, N.Y., USA). Mice were acclimatized to housing conditions at least 2 weeks before experiments. They received food and water ad libitum. For transplantation of leukemia cells in mice, intraperitonal (i.p.) injections of 10^4 L1210 or L1210/ARAC cells in RPMI-1640 medium were performed weekly into the CD2F1 mice. Seven days later, the ascetic fluid was obtained from the mice and a cell count of the leukemic cells was performed with a haemocytometer prior to subsequent transplantation. Mice were injected intravenously (i.v.) with 0.1 ml of L1210 or L1210/ARAC (10^4) cells. Control groups that received the control diet 2016 (Teklad Global 16% Protein Rodent Diet™; Harlan Teklad, Madison Wis.) were either treated or not with DAC. To test the effect of genistein in the diet, mice were fed with 2016 diet supplemented with 0.5% genistein (Harlan Teklad) and treated with either DAC or the vehicle alone. Mice were acclimated to the genistein-enriched regimen over a 10-days period before injection of leukemic cells. A Harvard apparatus compact infusion pump was used at a flow rate of 0.22 ml/h via 25-gauge needle into the lateral tail vein. DAC was given at 2 mg/kg for 8 h. Decitabine was prepared fresh before each experiment, dissolved in ½ PBS and sterilized by 0.2 μm filtration. Mice were placed in a restrainer cage during treatment with access to food. Toxicity was evaluated by body weight loss. Mice fed with genistein-enriched diet kept the same regimen during all the experiment. The survival time of each group of mice was monitored and the increased in life span (ILS) calculated.
Statistical analyses. In order to evaluate whether the inter-group variations were random, one-way ANOVA testing was performed. The p value was evaluated accordingly to Tukey's method (Hastings, C et al. (1947). Ann. Math. Statist. 18,413-426). A p value≦0.05 was taken for statistical significance. Valeriote and Lin's method (Valeriote, F and Lin, H. S. 1975. Cancer Chemother. Rep. 59(5): 895-900) was used to determine if the interaction observed between drugs in the clonogenic assays was additive, synergistic or antagonistic.

[7] = system: L1210/ARAC cells (DAC-resistant clone of L1210); assay: Inhibition/loss of clonogenicity in soft agar, L1210/ARAC; type: cell-based, murine; settings: alone or with DAC 4.4 nM
Procedure: as §1, with “The doubling time of the L1210/ARAC cells was about 12 h. Human lung adenocarcinoma cells H2087, and Calu-6 non-small cell lung cancer cells, were obtained from ATCC (ATCC #: CRL-5922; Manassas, Va. USA) and cultured in DMEM and RPMI without HEPES, respectively. The cells were trypsinized with 0.25% Trypsin-EDTA (Invitrogen, Grand Island, N.Y.). The doubling time of the H2087 cells was about 35 h. Cell lines were incubated at 37° C. in 5% CO2 atmosphere.” left out
as §3, §4

[8] = DAC 44 nM alone, relative to control cells
[9] = genistein 0.1 μM, alone or with DAC 44 nM
[10] = genistein 1 μM, alone or with DAC 44 nM

Compound: Nc1ncn([C@H]2C[C@H](O)[C@@H](CO)O2)c(=O)n1 [DAC, 4-Amino-1-(2-deoxy-β-D-ribofuranosyl)-1,3,5-triazin-2(1H)-one, reference compound]
- loss of clonogenicity [1, 8]: 20% and 17%
- loss of clonogenicity [2, 8]: 40% and 37%
- loss of clonogenicity ([3]; DAC 4.4 nM alone, relative to control cells): 28%
- loss of clonogenicity ([3]; DAC 4.4 nM alone, relative to control cells, listed as Decitabine): about 30%
- Loss of clonogenicity (%) [4]: 60%
- Loss of clonogenicity (%) ([4]; listed as Decitabine): 60 ± 4.1%
- Loss of clonogenicity (%) ([5]; decitabine 10 ng/ml alone): 36.6%
- Increase in life span (%) (L1210 leukemic cells): 66.8%
- Increase in life span (%) [6]: −2.3%
- Survival time [6]: 9.42 ± 0.50 days

Compound: O=c1c(-c2ccc(O)cc2)coc2cc(O)cc(O)c12 [genistein]
- loss of clonogenicity [1, 9]: 1%
- loss of clonogenicity [1, 10]: 15%
- loss of clonogenicity [2, 9]: 1%
- loss of clonogenicity [2, 10]: 12%
- loss of clonogenicity ([3]; genistein 0.1 μM, alone or with DAC 4.4 nM): 2%
- loss of clonogenicity ([3]; genistein 1 μM, alone or with DAC 4.4 nM): 13%
- loss of clonogenicity ([7]; genistein 0.1 μM): 2%
- loss of clonogenicity ([7]; genistein 1 μM): 11%
- Loss of clonogenicity (%) [4]: 3.8%
- Loss of clonogenicity (%) ([4]; listed as Genistein): 3.8 ± 9.4%
- Loss of clonogenicity (%) ([5]; genistein 0.1 μM, alone or with decitabine 10 ng/ml): 4.9%
- Loss of clonogenicity (%) ([5]; genistein 10 μM, alone or with decitabine 10 ng/ml): 31.7%
- Increase in life span (%) (L1210 leukemic cells): 7.0. (p < 0.001) %
- survival time after injection of leukemia (L1210 leukemic cells; 0.5% genistein-enriched diet): 7.85 ± 0.10 days
- Increase in life span (%) [6]: 7.88%
- Survival time [6]: 10.39 ± 1.01 days

From patent US7985738B2, “Cytosine nucleoside analogs and isoflavones and uses thereof” (Institut National de la Recherche Scientifique, priority 2007, dated 2011)
